Read-outs that look alike come from different tables or passages of the source.
Key:
[1] = biological target: full length recombinant Pim-2 (Homo sapiens (Human), UniProt Q9P1W9); test: Pim enzyme assay (HTRF, phosphorylation of biotinylated-BAD (S112) peptide), Pim-2; type: biochemical; conditions: Pim-2 enzyme assay; read-out: Pim2_IC50
[2] = biological target: full length recombinant Pim-1 (Homo sapiens (Human), UniProt P11309); test: Pim enzyme assay (HTRF, phosphorylation of biotinylated-BAD (S112) peptide), Pim-1; type: biochemical
[3] = tested on: Pim-1 stably transfected U2OS human osteogenic sarcoma line; test: Pim cell assay U2OS (phospho-BAD normalized against total BAD), Pim-1 transfected; type: cell-based; conditions: Homo sapiens, U2OS
[4] = tested on: Pim-2 stably transfected U2OS human osteogenic sarcoma line; test: Pim cell assay U2OS (phospho-BAD normalized against total BAD), Pim-2 transfected; type: cell-based; conditions: Homo sapiens, read-out: U2OS Pim2_Cell_IC50
[5] = biological target: full length recombinant Pim-3 (Homo sapiens (Human), UniProt Q86V86); test: Pim enzyme assay (HTRF, phosphorylation of biotinylated-BAD (S112) peptide), Pim-3; type: biochemical; conditions: Pim-3 enzyme assay; read-out: Pim3 IC50
Summary of the method: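 Full-length recombinant Pim-3 phosphorylated biotinylated BAD (S112) peptide in 60 mM Hepes pH 7.0, 0.05% BSA, 2 mM DTT for 1 h 30 min at 22 °C. After EDTA stop, HTRF was read with Eu anti-phospho-BAD and streptavidin-APC. IC50 came from 4-parameter logistic fit of percent-of-control values.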

[6] = Pim-1 enzyme assay, read-out: Pim_1_IC50
[7] = read-out: U2OS Pim1_Cell_IC50, U2OS cells, Pim-1 transfected

Chain of full length recombinant Pim-2 (Q9P1W9 whole entry): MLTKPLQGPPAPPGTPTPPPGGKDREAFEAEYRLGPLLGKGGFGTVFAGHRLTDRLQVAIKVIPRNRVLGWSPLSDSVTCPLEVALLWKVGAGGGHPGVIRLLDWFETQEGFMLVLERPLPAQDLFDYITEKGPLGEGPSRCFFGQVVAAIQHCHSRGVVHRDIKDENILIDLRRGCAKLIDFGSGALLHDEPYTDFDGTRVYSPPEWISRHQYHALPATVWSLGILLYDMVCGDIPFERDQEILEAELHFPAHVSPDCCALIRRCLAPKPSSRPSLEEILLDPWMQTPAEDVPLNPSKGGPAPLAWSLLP
Chain of full length recombinant Pim-1 (P11309 whole entry): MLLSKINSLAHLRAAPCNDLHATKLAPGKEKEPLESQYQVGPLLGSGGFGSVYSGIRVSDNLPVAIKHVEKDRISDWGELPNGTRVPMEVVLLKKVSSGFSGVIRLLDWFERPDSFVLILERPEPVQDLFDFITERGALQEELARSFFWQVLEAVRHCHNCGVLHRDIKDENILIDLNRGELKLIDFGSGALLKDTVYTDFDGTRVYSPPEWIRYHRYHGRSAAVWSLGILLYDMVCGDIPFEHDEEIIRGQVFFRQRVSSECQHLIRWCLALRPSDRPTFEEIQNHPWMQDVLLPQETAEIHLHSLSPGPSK

Compound	IC50 [1]	IC50 [2, 6]	IC50 ([3]; read-out: U2OS Pim1_Cell_IC50)	IC50 ([4]; U2OS cells, Pim-2 transfected)	IC50 [5]	IC50 [3, 7]	IC50 [2]	IC50 ([4]; U2OS)
CCCOc1cccc(-c2c[nH]c3ccc(-c4nnc(N)s4)cc23)n1 [Example 165, 5-(3-(6-propoxy-2-pyridinyl)-1H-indol-5-yl)-1,3,4-thiadiazol-2-amine]	35.3 nM	15.2 nM	231 nM	4230 nM	5.73 nM			
Nc1nnc(-c2ccc3[nH]cc(-c4cccc(N5CCCC5=O)n4)c3c2)s1 [Example 166, 1-(6-(5-(5-amino-1,3,4-thiadiazol-2-yl)-1H-indol-3-yl)-2-pyridinyl)-2-pyrrolidinone]	38.3 nM	18.2 nM	> 31600 nM	> 31600 nM	5.33 nM			
COc1ccc(-c2c[nH]c3ccc(-c4nnc(N)s4)cc23)nc1OC [Example 168, 5-(3-(5,6-dimethoxy-2-pyridinyl)-1H-indol-5-yl)-1,3,4-thiadiazol-2-amine]	44.1 nM	23.2 nM	111 nM	> 3160 nM	6.34 nM			
Cc1nccn1-c1cccc(-c2c[nH]c3ccc(-c4nnc(N)s4)cc23)n1 [Example 169, 5-(3-(6-(2-methyl-1H-imidazol-1-yl)-2-pyridinyl)-1H-indol-5-yl)-1,3,4-thiadiazol-2-amine]	23.8 nM	26.4 nM		> 31600 nM	11.8 nM	1810 nM		
Cc1cn(-c2nc(-c3c[nH]c4ccc(-c5nnc(N)s5)cc34)cs2)cn1 [Example 170, 5-(3-(2-(4-methyl-1H-imidazol-1-yl)-1,3-thiazol-4-yl)-1H-indol-5-yl)-1,3,4-thiadiazol-2-amine]	100 nM	34.8 nM	876 nM	> 31600 nM	9.47 nM			
Nc1nnc(-c2ccc3[nH]cc(-c4ccc5cn[nH]c5c4)c3c2)s1 [Example 171, 5-(3-(1H-indazol-6-yl)-1H-indol-5-yl)-1,3,4-thiadiazol-2-amine]	58.3 nM	36.6 nM		> 31600 nM	13.9 nM	2660 nM		
Nc1nnc(-c2ccc3[nH]cc(-c4csc(-n5ccccc5=O)n4)c3c2)s1 [Example 177, 1-(4-(5-(5-amino-1,3,4-thiadiazol-2-yl)-1H-indol-3-yl)-1,3-thiazol-2-yl)-2(1H)-pyridinone]	91.2 nM	45.8 nM	538 nM	> 31600 nM	30.5 nM			
Cc1ccn(-c2cccc(-c3c[nH]c4ccc(-c5nnc(N)s5)cc34)n2)n1 [Example 179, 5-(3-(6-(3-methyl-1H-pyrazol-1-yl)-2-pyridinyl)-1H-indol-5-yl)-1,3,4-thiadiazol-2-amine]	64.6 nM	77 nM	816 nM	> 31600 nM	24.1 nM			
Nc1nnc(-c2ccc3[nH]cc(-c4cccc(-n5cccn5)n4)c3c2)s1 [Example 180, 5-(3-(6-(1H-pyrazol-1-yl)-2-pyridinyl)-1H-indol-5-yl)-1,3,4-thiadiazol-2-amine]	49.5 nM	82.1 nM	926 nM	5460 nM	26.6 nM			
Nc1nnc(-c2ccc3[nH]cc(-c4cncc(N5CCCCC5)n4)c3c2)s1 [Example 198, 5-(3-(6-(1-piperidinyl)-2-pyrazinyl)-1H-indol-5-yl)-1,3,4-thiadiazol-2-amine]	10.9 nM	2.51 nM		1720 nM	2.79 nM	36.9 nM		
COc1cc(-c2c[nH]c3ccc(-c4nnc(N)s4)cc23)nc(OC(C)C)n1 [Example 200, 5-(3-(6-methoxy-2-(1-methylethoxy)-4-pyrimidinyl)-1H-indol-5-yl)-1,3,4-thiadiazol-2-amine]	30.1 nM	15.4 nM	112 nM	3800 nM	2.17 nM			
CC1(C)CNc2ncc(-c3c[nH]c4ccc(-c5nnc(N)s5)cc34)nc21 [Example 201, 5-(3-(7,7-dimethyl-6,7-dihydro-5H-pyrrolo[2,3-b]pyrazin-2-yl)-1H-indol-5-yl)-1,3,4-thiadiazol-2-amine]	32.4 nM	17.9 nM	387 nM	3830 nM	4.93 nM			
COc1cc(-c2c[nH]c3ccc(-c4nnc(N)s4)cc23)nc(OC)n1 [Example 202, 5-(3-(2,6-dimethoxy-4-pyrimidinyl)-1H-indol-5-yl)-1,3,4-thiadiazol-2-amine]	87.5 nM		238 nM		11.1 nM		73.2 nM	> 31600 nM
CC(C)Nc1cccc(-c2c[nH]c3ccc(-c4nnc(N)s4)cc23)n1 [Example 203, 6-(5-(5-amino-1,3,4-thiadiazol-2-yl)-1H-indol-3-yl)-N-(1-methylethyl)-2-pyridinamine]	37.2 nM	20.9 nM		2190 nM	5.42 nM	384 nM		
Nc1nnc(-c2ccc3[nH]cc(-c4cccc(NCC5CC5)n4)c3c2)s1 [Example 204, 6-(5-(5-amino-1,3,4-thiadiazol-2-yl)-1H-indol-3-yl)-N-(cyclopropylmethyl)-2-pyridinamine]	145 nM	82.9 nM	466 nM	7720 nM	18.2 nM			
Nc1nnc(-c2ccc3[nH]cc(-c4cncc(NCC5CC5)n4)c3c2)s1 [Example 207, 6-(5-(5-amino-1,3,4-thiadiazol-2-yl)-1H-indol-3-yl)-N-(cyclopropylmethyl)-2-pyrazinamine]	7.71 nM	1.77 nM	37.4 nM	1090 nM	1.68 nM			
CC(Oc1cncc(-c2c[nH]c3ccc(-c4nnc(N)s4)cc23)n1)C(F)(F)F (stereo not drawn) [Example 211, 5-(3-(6-(2,2,2-trifluoro-1-methylethoxy)-2-pyrazinyl)-1H-indol-5-yl)-1,3,4-thiadiazol-2-amine]	53.7 nM	24.5 nM	192 nM	2800 nM	13.2 nM			
COc1cncc(-c2c[nH]c3ccc(-c4nnc(N)s4)cc23)n1 [Example 212, 5-(3-(6-methoxy-2-pyrazinyl)-1H-indol-5-yl)-1,3,4-thiadiazol-2-amine]	30.2 nM	38.3 nM	177 nM	> 31600 nM	14.9 nM			
CNc1nnc(-c2ccc3[nH]cc(-c4cccc(N5CCOCC5)n4)c3c2)s1 [Example 214, N-methyl-5-(3-(6-(4-morpholinyl)-2-pyridinyl)-1H-indol-5-yl)-1,3,4-thiadiazol-2-amine]	91.9 nM	25.7 nM		15200 nM	10.1 nM	587 nM		
CS(=O)(=O)c1nnc(-c2ccc3[nH]cc(-c4cccc(N5CCOCC5)n4)c3c2)s1 [Example 215, 5-(5-(methylsulfonyl)-1,3,4-thiadiazol-2-yl)-3-(6-(4-morpholinyl)-2-pyridinyl)-1H-indole]	8780 nM	208 nM	> 31600 nM	> 31600 nM	168 nM			
CNc1nnc(-c2ccc3[nH]cc(-c4ccc5c(c4)OC(C)(C)C5)c3c2)s1 [Example 216, 5-(3-(2,2-dimethyl-2,3-dihydro-1-benzofuran-6-yl)-1H-indol-5-yl)-N-methyl-1,3,4-thiadiazol-2-amine]	1840 nM	187 nM	1770 nM	> 31600 nM	91.5 nM			

Source: patent publication US9321756B2, “Azole compounds as PIM inhibitors” (priority 2011, dated 2016)
